# Experimental data taken from publication PMC11768370, “Etodolac Single Dose Metabolic Profile Elucidation: Pharmacokinetics and Adverse Events in Healthy Volunteers” (Pharmaceuticals, 2025).
# Test: Drug stability in biological fluid (LC-MS/MS method validation)
# Type: in vitro ADME
# Settings: human plasma, LQC and HQC; freshly prepared, post-processing (auto-injector, 73:43 hours), short-term (72:21 hours), freeze-thaw (4 cycles) at -20 °C and -70 °C, long-term 90 days at -20 °C and -70 °C; demonstrating stability
# Description: criteria for RE and CV must not exceed 15% for QC and 20% for LLOQ. All stability assays were performed to cover the conditions anticipated for handling real samples: freshly prepared, post-processing, short-term, freeze–thaw, and long-term were evaluated at concentrations of LQC and HQC. RE and CV were used to check possible variations.
# 2.4. Determination of Etodolac Pharmacokinetic
# Following Food and Drug Administration (FDA) guidelines, blood samples were drawn up to a period of three to ﬁve times the terminal elimination half-life (t1/2), and the mean AUC0–t/AUC0–∞ ratio was required to be higher than 80%. The area under the concentration–time curve (AUC0–t) was calculated from time 0 to time t. The total area under the curve (AUC0–∞) was obtained up to […], and extrapolations were performed using the last measurable concentration and the terminal elimination rate constant (Ke). The terminal elimination rate constant, Ke, was estimated from the slope of the terminal […] of the plasma of the etodolac concentration–time curve (by means of the linear regression method) adjusted in the last three values. The terminal elimination half-life, t1/2, was then obtained as 0.693/Ke. […]
compound,measurement,value
CCc1cccc2c3c([nH]c12)C(CC)(CC(=O)O)OCC3 (stereo not shown) [Etodolac],drug stability in biological fluid: precision and accuracy values,below 15%
